One data set deals with MT-2 cells. As to the kind of experiment: MTT dye reduction cytotoxicity assay, 5 days. (Tetrazolium dyes change colour on reduction, which living cells bring about.)
The test system of data set [1] is HIV-1/MN. As to the kind of experiment: Anti-HIV assay (MTT, protection from cytopathic effect), pre- or post-infection, HIV-1/MN. On MN Post-Infection: key: ++++: significant and reproducible inhibition of cytopathic effect; +++: significant and reproducible inhibition of cytopathic effect; +: noticeable but minimal protection; ---: no protective effect was observed; --: no protective effect was observed; -: no protection was observed but some changes in the cell culture occurred. In kind it is cell-based. (Cytopathic effects are the visible damage that an infection or toxin causes in cultured cells.)
The subject of data set [2] is HIV-1/MN. In words: Virus neutralization assay (MTT), HIV-1MN. On MN Neutralization: key: ++++: significant and reproducible inhibition of cytopathic effect; +++: significant and reproducible inhibition of cytopathic effect; +: noticeable but minimal protection; ---: no protective effect was observed; --: no protective effect was observed; -: no protection was observed but some changes in the cell culture occurred. The data set is classed as cell-based.
In a further data set the test system is HIV-1. As to the kind of experiment: Anti-HIV testing under the rigorous conditions of the examples (strain not stated). The following applies: high virus load, words.
In a further data set the test system is Influenza Viruses. To be noted: cited from earlier work.
The subject of another data set is HIV-1MN induced syncytia. As to the kind of experiment: Syncytia inhibition, HIV-1MN.
Another data set concerns VP6 primary HIV isolate. As to the kind of experiment: Anti-HIV assay (MTT), pre- or post-infection, VP6 isolate. To be noted: words.
Data set [3] deals with AZT resistant strain (AZTR) of HIV-1. In words: Anti-HIV assay (MTT), pre- or post-infection, AZT resistant strain. To be noted: words.
The mark [4] stands for this setting: HIV-1/MN, virus pre-mixed with compound 1 hour.

Entries after “also recorded” stand apart in the source; their conditions may differ. Where two headings read alike, the source gives them in different places. A value given as a limit tells only on which side of the number the result lay.

Description for MT-2 cells: The MT-2 cell line was grown and maintained in RPMI 1640 containing 10% fetal calf serum and antibiotics.
Precisely, when the MT-2 cells were in log phase and 2×10^4 cells were distributed in each well along with separate 100 μl aliquots of diluted test compounds. The test compounds were soluble in ethyl alcohol (EtOH). Ethanol and medium were incubated in some wells with the cells as an ethanol control. A cell control was also included (wells containing only cells and medium). The plates were incubated for 5 days at 37° C. in 5% CO2 and humidified conditions. Cell viability was determined in each well by the MTT assay. The OD570 (optical density at 570 nm) of cells without test compound was taken as 0% killing and was compared to the OD570 of cells with test compound. The toxicity profile for different compounds was then scored. In the MTT dye reduction assay toxicity was indicated as yellow in the wells, with blue color indicating the compound was non-toxic.

Take `O[C@@H]1[C@@H]2C[C@H]3C[C@@H](C2)C2(OCCO2)[C@@H]1C3` (relative stereo) [Compound 8, 4(e)-hydroxy-2-adamantanone ethylene glycol ketal]: in the data set on MT-2 cells, the “Toxicity at 5 μg/ml” value was “-”, the “Toxicity at 50 μg/ml” value is “-” and the “Toxicity at .5 μg/ml” value is on record as “-”. Further, in the data set with HIV-1/MN [1], the “MN Post-Infection” value is listed as “-” and the “effect in pre-infection (pretreatment) assay” value (“effect in pre-infection” for short) is listed as “effective”. For the same molecule, in the data set on HIV-1/MN [2], the “effect in neutralization assay” value was “effective”.

For the molecule `O=C1C2CC3CC(C2)CC1C3` [2-adamantanone, reference compound], the “activity under the rigorous testing conditions” value (“activity” below) in the data set with HIV-1 is “ineffective”.

For the molecule `O=C1C2CC3CC1CC(O)(C3)C2` [5-hydroxy-2-adamantanone], the “activity” value in the data set with HIV-1 is “ineffective”.

For the molecule `NC12CC3CC(CC(C3)C1)C2` [Amantadine], the “concentration at which viral entry into the cell is non-specifically inhibited” value in the data set with Influenza Viruses (altering the pH of the endocytic vesicle) is on record as more than 0.5 mM. The “concentration of selective strain-specific inhibition of virus assembly” value in the data set on Influenza Viruses (lower concentration) is “about 5 μM”.

Consider `OC12CC3(O)CC(O)(C1)CC(O)(C2)C3` [Compound 1, 1,3,5,7-tetrahydroxyadamantane], for which, in the data set on MT-2 cells, the “Toxicity at 5 μg/ml” value is “-”, the “Toxicity at 50 μg/ml” value is on record as “-”, the “Toxicity at 500 μg/ml” value is “-” and the “Toxicity at .5 μg/ml” value was “-”. Further, in the data set on HIV-1/MN [1] (HIV-1/MN, post-infection), the “MN Post-Infection” value is on record as “+++”. Besides, the “effect in both pre-infection and post-infection assays” value in the data set on HIV-1/MN [1] (HIV-1MN, words) was “effective”. Further, in the data set with HIV-1/MN [1] (MN, pre-infection, words), the “effect in pre-infection” value is given as “effective”. The “effect in post-infection assay” value with HIV-1/MN [1] (post-infection, words) is “effective”. For the same molecule, in the data set with HIV-1/MN [2] (neutralization, words), the “effect in neutralization assay” value is listed as “effective”.

Turning to `CC12CC3(C)CC(O)(C1)CC(O)(C2)C3` [Compound 2, 1,3-dihydroxy-5,7-dimethyladamantane], in the data set with MT-2 cells, the “Toxicity at 5 μg/ml” value is recorded as “-”, the “Toxicity at 50 μg/ml” value was “-” and the “Toxicity at .5 μg/ml” value was “-”. Moreover, the “MN Post-Infection” value in the data set with HIV-1/MN [1] (HIV-1/MN, post-infection) is given as “+++”. Besides, the “effect in both pre-infection and post-infection assays” value with HIV-1/MN [1] (HIV-1MN, words) was “effective”. In addition, the “effect in pre-infection” value in the data set on HIV-1/MN [1] (MN, pre-infection, words) is recorded as “effective”. In addition, the “effect in post-infection assay” value in the data set with HIV-1/MN [1] (post-infection, words) is listed as “effective”. Besides, in the data set on HIV-1/MN [2] (neutralization, words), the “effect in neutralization assay” value is on record as “effective”.

As to `C[N+](C)(C)CCC[N+](C)(C)C1C2CC3C4CC5CC3C1C(C5)C4C2` (stereo not shown) [Compound 3, N-3-diamantyl-N,N,N',N',N'-pentamethyl propane-1,3-bis ammonium diiodide], in the data set with MT-2 cells, the “Toxicity at 5 μg/ml” value is given as “-”, the “Toxicity at 50 μg/ml” value is reported as “-” and the “Toxicity at .5 μg/ml” value is “-”. In addition, in the data set on HIV-1/MN [1] (HIV-1/MN, post-infection), the “MN Post-Infection” value is “+++”. Besides, the “effect in both pre-infection and post-infection assays” value in the data set on HIV-1/MN [1] (HIV-1MN, words) was “effective”. The “effect in pre-infection” value with HIV-1/MN [1] (MN, pre-infection, words) is given as “effective”. For the same molecule, the “effect in post-infection assay” value in the data set on HIV-1/MN [1] (post-infection, words) was “effective”. Further, in the data set on HIV-1/MN [2] (setting [4]), the “MN Neutralization” value was “+++”. The “effect in neutralization assay” value in the data set with HIV-1/MN [2] (neutralization, words) was “effective”.

As to `C[N+](C)(C)CC[N+](C)(C)C1C2CC3CC(C2)CC1C3` (stereo not shown) [Compound 4, N-2-adamantyl-N,N,N',N',N'-pentamethyl ethane-1,2-bis ammonium diiodide], in the data set on MT-2 cells, the “Toxicity at 5 μg/ml” value was “-”, the “Toxicity at 50 μg/ml” value was “-”, the “Toxicity at 500 μg/ml” value was “-” and the “Toxicity at .5 μg/ml” value was “-”.

For `O=C(O)CNC1C2CC3CC(C2)CC1C3` (stereo not shown) [Compound 5, N-2-adamantyl glycine], in the data set with MT-2 cells, the “Toxicity at 5 μg/ml” value is reported as “-”, the “Toxicity at 50 μg/ml” value was “-”, the “Toxicity at 500 μg/ml” value is “-” and the “Toxicity at .5 μg/ml” value was “-”. Further, the “MN Pre-Infection” value in the data set on HIV-1/MN [1] (HIV-1/MN, cells pretreated 1 hour) is “-”. Further, the “MN Post-Infection” value with HIV-1/MN [1] (HIV-1/MN, post-infection) is on record as “+++”. In addition, the “effect in post-infection assay” value in the data set with HIV-1/MN [1] (post-infection, words) was “effective”. In addition, in the data set on HIV-1/MN [2] (setting [4]), the “MN Neutralization” value is reported as “-”.

`O=C1C2CC3C4CC5CC3C1C(C5)C4C2` [Compound 6, 3-diamantanone]: the “inhibition of HIV-1MN induced syncytia at 10 μg/ml” value in the data set with HIV-1MN induced syncytia (10 μg/ml, FIG. 2) was “completely inhibit”. For the same molecule, in the data set with VP6 primary HIV isolate (both pre- and post-infection), the “inhibition of virus replication, VP6 clinical isolates” value is “inhibited virus replication”. Further, in the data set on VP6 primary HIV isolate, the “inhibition of clinical isolates” value is “shown to inhibit”. Moreover, in the data set on MT-2 cells, the “Toxicity at 5 μg/ml” value was “-”, the “Toxicity at 50 μg/ml” value is on record as “-” and the “Toxicity at .5 μg/ml” value was “-”. For the same molecule, the “inhibition of virus replication, AZT resistant strains” value in data set [3] (both pre- and post-infection) is on record as “inhibited virus replication”. For the same molecule, in data set [3], the “inhibition of AZT resistant isolates” value is given as “shown to inhibit”. Also, in the data set with HIV-1/MN [1], the “MN Post-Infection” value is listed as “++++”; the “MN Pre-Infection” value is listed as “+++”; the “effect in both pre-infection and post-infection assays” value is listed as “effective; also recorded: active”; the “effect in post-infection assay” value is reported as “effective”. In the data set on HIV-1/MN [1], the “effect in pre-infection” value is “effective”. In the data set on HIV-1/MN [2], the “MN Neutralization” value was “+++” and the “effect in neutralization assay” value was “effective; also recorded: active”.

As to `O=C1C2CC3CC(C2)C(=O)C1C3` [Compound 7, 2,4-adamantanedione], in the data set with HIV-1MN induced syncytia (concentration not given), the “inhibition of syncytia formation” value is reported as “substantially eliminate syncytia formation”. The “inhibition of CPE of HIV, VP6 isolate” value in the data set on VP6 primary HIV isolate (pre-infection) is on record as “inhibited CPE of HIV”. Moreover, in the data set on VP6 primary HIV isolate, the “inhibition of clinical isolates” value is “shown to inhibit”. Also, in the data set on MT-2 cells, the “Toxicity at 5 μg/ml” value is “-”, the “Toxicity at 50 μg/ml” value was “-”, the “Toxicity at 500 μg/ml” value is “-” and the “Toxicity at .5 μg/ml” value is “-”. For the same molecule, the “inhibition of CPE of HIV, AZT resistant isolate” value in data set [3] (pre-infection) is “inhibited CPE of HIV”. Moreover, the “inhibition of AZT resistant isolates” value in data set [3] is given as “shown to inhibit”. In addition, the “MN Post-Infection” value in the data set on HIV-1/MN [1] (HIV-1/MN, post-infection) is on record as “-”. Also, in the data set with HIV-1/MN [1] (MN, pre-infection, words), the “effect in pre-infection” value is “effective; also recorded: inhibited viral cytopathic effect”. For the same molecule, the “pretreatment compared with post-infection treatment” value in the data set with HIV-1/MN [1] (words) is “pretreatment is more effective than post-infection treatment”. Moreover, the “effect in neutralization assay” value in the data set on HIV-1/MN [2] (neutralization, words) is “effective”.

With `C[N+](C)(C)CCC[N+](C)(C)C1C2CC3CC(C2)CC1C3` (stereo not shown) [N-(2-adamantyl)-N,N,N',N',N'-pentamethyl-propane-1,3-bis ammonium diodide], in the data set with HIV-1, the “activity” value is given as “ineffective”.

Take `O=C1C2CC3CC1CC(C2)C3=O` [adamantane-2,6-dione]: the “activity” value in the data set on HIV-1 is on record as “ineffective”.

As to `O=C1C2CC3C4CC5CC3C(C2=O)C(C5)C14` [diamantane-3,5-dione], the “activity” value with HIV-1 is recorded as “ineffective”.

Values taken from patent US5576355A, “Diamondoid derivatives for pharmaceutical use” (priority 1993, dated 1996).
